Source: BindingDB's records for doi:10.3109/14756366.2012.742517 (Seoul National University, 2014)

The compounds below were run against T1, Pancreatic triacylglycerol lipase (Sus scrofa, UniProt P00591) (assay: In Vitro Pancreatic Lipase Assay). Conditions: pH 7.4; 37 °C.
T1 sequence (P00591 whole entry): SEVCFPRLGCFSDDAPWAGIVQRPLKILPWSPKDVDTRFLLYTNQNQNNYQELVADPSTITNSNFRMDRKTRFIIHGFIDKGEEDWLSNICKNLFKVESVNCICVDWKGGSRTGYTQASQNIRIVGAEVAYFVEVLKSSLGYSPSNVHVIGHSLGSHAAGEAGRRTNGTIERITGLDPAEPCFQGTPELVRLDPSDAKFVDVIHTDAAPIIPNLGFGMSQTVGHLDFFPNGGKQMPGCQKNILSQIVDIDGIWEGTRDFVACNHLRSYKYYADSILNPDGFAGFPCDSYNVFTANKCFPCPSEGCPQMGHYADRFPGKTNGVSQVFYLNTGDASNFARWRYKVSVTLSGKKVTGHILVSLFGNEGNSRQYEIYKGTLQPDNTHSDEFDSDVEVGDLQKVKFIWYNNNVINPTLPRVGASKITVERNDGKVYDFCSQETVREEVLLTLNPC
Procedure: The mixedsolution that composed of […] of 0.1mM 4-MU oleate, […] of the above-mentioned buffer and […] of test samples was prepared before adding lipase. The enzymatic reaction was started by adding 0.05mL of 1 U/mL pancreatic lipase and incubation was carried out for 20 min at 37 °C. The amount of 4-methylumbelliferon released by the enzyme was monitored at an emission of 450 nm and excitation wavelength of 320 nm using a fluorescence spectrophotometer.

**Q.** With `COc1cc(O)cc(CCc2ccccc2O)c1` [2-(3-hydroxy-5-methoxyphenethyl)phenol] as the compound, how does the IC50 read?
**A.** Its IC50 is 30.1 µM.

**Q.** And the Ki?
**A.** The Ki was 6.28 µM.

**Q.** Which results are given for `COc1c(O)cccc1CCc1cc(O)cc(O)c1` [3,3',5-Trihydroxy-2'-methoxybibenzyl (3)]?
**A.** IC50: 8.77 µM; Ki: 1.82 µM

**Q.** With `COc1cc(/C=C/C(=O)OCCc2ccc(O)cc2)ccc1O` [p-hydroxyphenethyl trans-ferulate] as the compound, how does the IC50 read?
**A.** The IC50 was greater than 50 µM.

**Q.** `Oc1cc(O)cc(CCc2ccccc2O)c1` [2',3,5-Trihydroxybibenzyl (2)] was tested. Which IC50 did it give?
**A.** The IC50 was 29.2 µM.

**Q.** And the Ki?
**A.** The Ki was 6.45 µM.

**Q.** With `COc1cc(O)cc2c1OCCc1ccccc1-2` [9,10-Dihydro-4-methoxy-dibenzoxepin-2-ol (16)] as the compound, how does the IC50 read?
**A.** The IC50 was greater than 50 µM.

**Q.** Which IC50 does the source give for `COc1cc(O)cc2c1-c1c(O)cccc1CC2` [Hircinol (13)] here?
**A.** The IC50 was 40.6 µM.

**Q.** What about the Ki of the same compound?
**A.** The Ki was 8.57 µM.

**Q.** What does the source list for `COc1cc(CCc2cc(O)cc(O)c2)ccc1O` [Tristin (1)]?
**A.** IC50: 13.5 µM; Ki: 2.75 µM

**Q.** Which IC50 does the source give for `Oc1cc(O)c2c(c1)-c1ccccc1CCO2` [9,10-Dihydro-dibenzoxepin-2,4-diol (15)] here?
**A.** Its IC50 is greater than 50 µM.

**Q.** What does the source list for `COc1cc(CCc2ccccc2O)cc(OC)c1OC` [Batatasin V (10)]?
**A.** IC50: 45.7 µM; Ki: 9.66 µM

**Q.** What does the source list for `O=C(/C=C/C=C/c1ccc(O)cc1)CCc1ccc(O)cc1` [(4E,6E)-1,7-bis(4-hydroxyphenyl)-4,6-heptadien-3-one (20)]?
**A.** IC50: 9.12 µM; Ki: 1.92 µM

**Q.** How did the IC50 turn out when `Oc1ccc(CC[C@@H](O)C[C@H](O)CCc2ccc(O)cc2)cc1` [(3R,5R)-3,5-dihydroxy-1,7-bis(4-hydroxyphenyl)-3,5-heptanediol (22)] was run?
**A.** The IC50 was greater than 50 µM.

**Q.** What does the source list for `COc1cc(O)c2c(c1)CCc1cc(O)ccc1-2` [2,5-Dihydroxy-7-methoxy-9,10-dihydrophenanthrene (14)]?
**A.** IC50: 25.1 µM; Ki: 4.96 µM

**Q.** For `COc1cc(CCc2ccccc2O)cc(OC)c1` [3,5-Dimethoxy-2'hydroxybibenzyl (7)], which IC50 is on record?
**A.** Its IC50 is 44.1 µM.

**Q.** What about the Ki of the same compound?
**A.** Its Ki is 9.28 µM.

**Q.** For `COc1cc(/C=C/C=C/C(=O)CCc2ccc(O)cc2)ccc1O` [(4E,6E)-7-(4-hydroxy-3-methoxyphenyl)-1-(4-hydroxyphenyl)-4,6-heptadien-3-one (21)], which IC50 is on record?
**A.** The IC50 was 11.1 µM.

**Q.** And the Ki?
**A.** Its Ki is 2.17 µM.

**Q.** Which IC50 does the source give for `COc1cc(CCc2ccccc2)cc(OC)c1` [3,5-Dimethoxybibenzyl (8)] here?
**A.** Its IC50 is greater than 50 µM.

**Q.** Which IC50 does the source give for `COc1cc(O)cc(CCc2cccc(O)c2)c1` [Batatasin III (4)] here?
**A.** Its IC50 is 32.3 µM.

**Q.** And the Ki?
**A.** The Ki was 6.79 µM.

**Q.** For `O=C(/C=C/c1ccc(O)cc1)OCCc1ccc(O)cc1`, which IC50 is on record?
**A.** The IC50 was 34.8 µM.

**Q.** And the Ki?
**A.** The Ki was 7.49 µM.

**Q.** With `COc1cc(CCc2ccccc2O)cc(O)c1OC` [3,4-Dimethoxy-2',5-dihydroxybibenzyl (9)] as the compound, how does the IC50 read?
**A.** Its IC50 is greater than 50 µM.

**Q.** With `COc1cc(OC)c2c(ccc3cc(OC)c(O)cc32)c1` [Batatasin I (12)] as the compound, how does the IC50 read?
**A.** The IC50 was greater than 50 µM.

**Q.** Which results are given for `COc1cc2c(ccc3cc(O)cc(OC)c32)cc1O` [3,5-Dimethoxy-2,7-phenanthrenediol (11)]?
**A.** IC50: 12.7 µM; Ki: 2.67 µM

**Q.** `COc1cc(CC[C@@H](O)C[C@H](O)CCc2ccc(O)c(OC)c2)ccc1O` [(3R,5R)-1,7-bis(4-hydroxy-3-methoxyphenyl)-3,5-heptanediol] was tested. Which IC50 did it give?
**A.** The IC50 was greater than 50 µM.

**Q.** Which results are given for `O=C(/C=C/C=C/c1ccc(O)cc1)/C=C/c1ccc(O)cc1` [(1E,4E,6E)-1,7-bis(4-hydroxyphenyl)-1,4,6-heptatrien-3-one (19)]?
**A.** IC50: 16.4 µM; Ki: 3.34 µM
